“And” between values parts separate entries of the source, which are not always exact repeats. Equal values may be shown once.
Key:
[1] = biological target: T1, Rat PPARγ (Rattus norvegicus, UniProt O88275); assay: cell-based nuclear receptor profiling (Indigo Biosciences), PPARγ
T1 sequence (O88275 238-505 limits assumed): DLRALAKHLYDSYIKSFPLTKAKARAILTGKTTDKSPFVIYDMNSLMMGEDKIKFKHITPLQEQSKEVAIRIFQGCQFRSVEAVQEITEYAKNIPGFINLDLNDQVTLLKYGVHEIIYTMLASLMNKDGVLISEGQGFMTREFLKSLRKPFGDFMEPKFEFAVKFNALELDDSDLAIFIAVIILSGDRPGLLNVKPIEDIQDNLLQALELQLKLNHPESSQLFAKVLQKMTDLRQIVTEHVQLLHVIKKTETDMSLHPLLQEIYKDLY
Experimental: (§1) Rat PPARα, PPARδ, and PPARγ activities were determined by Indigo Biosciences (State College, PA) cell-based nuclear receptor profiling service.

[2] = biological target: T2, Rat PPARα (Rattus norvegicus, UniProt P37230); assay: cell-based nuclear receptor profiling (Indigo Biosciences), PPARα
T2 sequence (P37230 1-468): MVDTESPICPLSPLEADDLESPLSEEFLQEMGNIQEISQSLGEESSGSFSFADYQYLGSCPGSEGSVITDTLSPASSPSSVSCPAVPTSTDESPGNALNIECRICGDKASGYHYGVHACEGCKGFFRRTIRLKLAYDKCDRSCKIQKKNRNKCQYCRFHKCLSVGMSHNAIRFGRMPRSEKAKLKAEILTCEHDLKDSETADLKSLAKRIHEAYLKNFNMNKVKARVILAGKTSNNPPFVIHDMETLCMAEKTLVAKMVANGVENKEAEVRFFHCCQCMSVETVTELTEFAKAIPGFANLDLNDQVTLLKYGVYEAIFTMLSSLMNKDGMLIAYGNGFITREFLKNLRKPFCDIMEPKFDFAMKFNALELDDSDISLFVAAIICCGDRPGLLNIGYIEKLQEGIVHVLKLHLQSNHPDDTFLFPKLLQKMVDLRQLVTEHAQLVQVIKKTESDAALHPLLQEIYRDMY
Experimental: as §1

[3] = biological target: T3, human GPR43 (FFAR2) (Homo sapiens, UniProt O15552); assay: cAMP (LANCE) functional assay, CHO cells expressing human GPR43; format: cell-based
T3 construct: expressed in transfected cells
T3 sequence (O15552 1-330): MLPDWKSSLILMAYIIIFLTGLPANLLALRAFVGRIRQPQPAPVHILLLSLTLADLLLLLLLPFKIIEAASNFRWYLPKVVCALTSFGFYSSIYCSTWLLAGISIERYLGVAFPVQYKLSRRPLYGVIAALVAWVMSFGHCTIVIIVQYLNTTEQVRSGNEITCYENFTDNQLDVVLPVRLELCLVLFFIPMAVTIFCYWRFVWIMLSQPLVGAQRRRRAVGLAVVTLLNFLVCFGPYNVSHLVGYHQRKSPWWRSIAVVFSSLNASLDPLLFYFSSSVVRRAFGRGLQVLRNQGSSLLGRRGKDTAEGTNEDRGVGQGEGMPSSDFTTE
Experimental: CHO cells stably expressing human GPR41 or human GPR43 were harvested with non-enzymatic cell dissociation buffer and re-suspended in LANCE stimulation buffer (prepared as described by PE) at 0.25 million cells per ml (3.3 million cells per ml for GPR43) and 6 μl was then plated into each well of a 384-well Culturplate. Compounds were serially diluted in DMSO and then diluted further into stimulation buffer containing 2 μM forskolin (Sigma) at 2-times final concentration in the assay. 6 μl of the diluted compounds were then added to the assay plate and the plate incubated for 60 mins at room temperature. After the incubation, 12 μl of detection reagent (prepared as described by PE) was added to each well and the plates incubated one additional hour at room temperature. After the final incubation, the plates were read in a Perkin Elmer Envision reader with a method designed for Time-resolved fluorescence (TRF) assays (340 nm excitation, dual emission 615 and 655 nm). For each assay, a cAMP standard curve plate was also included. All fluorescent readings (using the 655/615 nm ratio) were converted to cAMP concentration using the cAMP standard curve and the percent activity at each concentration of test compound was determined using 0% activation (basal activity) determined in those wells containing DMSO alone, while 100% activity was determined in wells containing a concentration of agonist know to maximally activate the receptor.

O=C1NC(=O)C(C2CCOc3cc(Oc4ccc(C(F)(F)F)cc4Cl)ccc32)S1 (centres unmarked) [MK-2305] was tested, and the EC50 [1] was over 10 µM, the “% Activation” value ([1]; @ 10 μM) was 3.1 @ 10 μM % and 3.1% and the “% Effect” value ([1]; Dose 0.309 nM) was -0.11%. The “% Effect” value ([1]; Dose 0.981 nM) was -0.11%, the “% Effect” value ([1]; Dose 3.11 nM) was -0.19% and the “% Effect” value ([1]; Dose 9.85 nM) was -0.3%. The “% Effect” value ([1]; Dose 31.2 nM) was -0.25%, the “% Effect” value ([1]; Dose 99 nM) was -0.14% and the “% Effect” value ([1]; Dose 314 nM) was -0.37%. For the same compound, the “% Effect” value ([1]; Dose 995 nM) was -0.13%, the “% Effect” value ([1]; Dose 3155 nM) was 0.6% and the “% Effect” value ([1]; Dose 10000 nM) was 3.1%. The EC50 [2] was over 10 µM, the “% Activation” value ([2]; @ 10 μM) was -0.2 @ 10 μM % and -0.24% and the “% Effect” value ([2]; Dose 0.309 nM) was -0.03%. For the same compound, the “% Effect” value ([2]; Dose 0.981 nM) was -0.05%, the “% Effect” value ([2]; Dose 3.11 nM) was -0.11% and the “% Effect” value ([2]; Dose 9.85 nM) was -0.1%. For the same compound, the “% Effect” value ([2]; Dose 31.2 nM) was -0.09%, the “% Effect” value ([2]; Dose 99 nM) was -0.06% and the “% Effect” value ([2]; Dose 314 nM) was -0.09%. The “% Effect” value ([2]; Dose 995 nM) was -0.13%, the “% Effect” value ([2]; Dose 3155 nM) was -0.18% and the “% Effect” value ([2]; Dose 10000 nM) was -0.24%. For the same compound, the “% Activation” value ([3]; @ 25 μM) was 61 @ 25 μM % and 61%, the “% Effect” value ([3]; Dose 1.267 nM) was -23% and the “% Effect” value ([3]; Dose 3.801 nM) was -37%. The “% Effect” value ([3]; Dose 34.208 nM) was -32%, the “% Effect” value ([3]; Dose 102.624 nM) was 25% and the “% Effect” value ([3]; Dose 307.872 nM) was -78%. For the same compound, the “% Effect” value ([3]; Dose 923.617 nM) was -34%, the “% Effect” value ([3]; Dose 2770.85 nM) was -39% and the “% Effect” value ([3]; Dose 8312.55 nM) was -23%. The “% Effect” value ([3]; Dose 24938 nM) was 61% and the EC50 ([3]; cAMP, CHO cells expressing human GPR43) was over 25 µM.

— article PMC5441580, “GPR40 partial agonist MK-2305 lower fasting glucose in the Goto Kakizaki rat via suppression of endogenous glucose production” (PLoS ONE, 2017)
